This note sets out measurements from ChEMBL document CHEMBL1909493, “Synthesis and biological evaluation of novel analogues of the pan class I phosphatidylinositol 3-kinase (PI3K) inhibitor 2-(difluoromethyl)-1-[4,6-di(4-morpholinyl)-1,3,5-triazin-2-yl]-1H-benzimidazole (ZSTK474)” (J Med Chem, 2011).

Converted amounts (≈) assume the structure as drawn.

In data set [1] the target is T1, Phosphatidylinositol 4,5-bisphosphate 3-kinase catalytic subunit beta isoform (Homo sapiens, UniProt P42338). Kind of data set: Inhibition of human His-tagged PI3K p110beta after 2 hrs by HTRF assay.
T1 sequence (P42338 whole entry, canonical isoform): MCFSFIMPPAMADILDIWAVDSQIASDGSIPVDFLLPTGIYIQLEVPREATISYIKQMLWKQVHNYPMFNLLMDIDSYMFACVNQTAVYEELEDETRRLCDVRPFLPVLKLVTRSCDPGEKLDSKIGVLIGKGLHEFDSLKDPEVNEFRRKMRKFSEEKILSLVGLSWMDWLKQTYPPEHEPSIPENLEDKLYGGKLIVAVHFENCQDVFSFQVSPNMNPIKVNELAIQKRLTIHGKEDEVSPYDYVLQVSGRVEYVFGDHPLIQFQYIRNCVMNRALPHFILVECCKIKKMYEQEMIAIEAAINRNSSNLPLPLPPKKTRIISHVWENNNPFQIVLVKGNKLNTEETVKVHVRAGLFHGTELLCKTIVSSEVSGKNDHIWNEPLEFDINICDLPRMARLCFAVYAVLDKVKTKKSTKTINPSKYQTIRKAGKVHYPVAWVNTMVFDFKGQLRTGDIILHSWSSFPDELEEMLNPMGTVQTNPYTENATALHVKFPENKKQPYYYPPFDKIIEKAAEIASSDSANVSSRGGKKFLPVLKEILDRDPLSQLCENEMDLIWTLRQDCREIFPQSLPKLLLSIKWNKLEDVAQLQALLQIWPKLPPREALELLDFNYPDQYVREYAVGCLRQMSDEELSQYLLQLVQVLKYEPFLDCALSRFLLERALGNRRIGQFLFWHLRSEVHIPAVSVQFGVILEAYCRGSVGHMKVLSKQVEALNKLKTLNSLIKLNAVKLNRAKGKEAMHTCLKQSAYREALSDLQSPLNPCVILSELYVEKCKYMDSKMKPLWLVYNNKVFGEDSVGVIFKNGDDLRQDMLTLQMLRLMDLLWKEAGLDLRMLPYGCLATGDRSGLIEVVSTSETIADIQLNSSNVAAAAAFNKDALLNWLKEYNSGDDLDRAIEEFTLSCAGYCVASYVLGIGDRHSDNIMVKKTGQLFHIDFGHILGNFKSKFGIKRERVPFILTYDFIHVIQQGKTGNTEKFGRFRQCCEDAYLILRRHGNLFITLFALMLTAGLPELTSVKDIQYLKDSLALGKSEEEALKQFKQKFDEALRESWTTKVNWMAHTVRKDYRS
Data set [2] deals with T2, Phosphatidylinositol 4,5-bisphosphate 3-kinase catalytic subunit alpha isoform (Homo sapiens, UniProt P42336). Kind of data set: Inhibition of human His-tagged PI3K p110alpha after 2 hrs by HTRF assay.
T2 sequence (P42336 whole entry, canonical isoform): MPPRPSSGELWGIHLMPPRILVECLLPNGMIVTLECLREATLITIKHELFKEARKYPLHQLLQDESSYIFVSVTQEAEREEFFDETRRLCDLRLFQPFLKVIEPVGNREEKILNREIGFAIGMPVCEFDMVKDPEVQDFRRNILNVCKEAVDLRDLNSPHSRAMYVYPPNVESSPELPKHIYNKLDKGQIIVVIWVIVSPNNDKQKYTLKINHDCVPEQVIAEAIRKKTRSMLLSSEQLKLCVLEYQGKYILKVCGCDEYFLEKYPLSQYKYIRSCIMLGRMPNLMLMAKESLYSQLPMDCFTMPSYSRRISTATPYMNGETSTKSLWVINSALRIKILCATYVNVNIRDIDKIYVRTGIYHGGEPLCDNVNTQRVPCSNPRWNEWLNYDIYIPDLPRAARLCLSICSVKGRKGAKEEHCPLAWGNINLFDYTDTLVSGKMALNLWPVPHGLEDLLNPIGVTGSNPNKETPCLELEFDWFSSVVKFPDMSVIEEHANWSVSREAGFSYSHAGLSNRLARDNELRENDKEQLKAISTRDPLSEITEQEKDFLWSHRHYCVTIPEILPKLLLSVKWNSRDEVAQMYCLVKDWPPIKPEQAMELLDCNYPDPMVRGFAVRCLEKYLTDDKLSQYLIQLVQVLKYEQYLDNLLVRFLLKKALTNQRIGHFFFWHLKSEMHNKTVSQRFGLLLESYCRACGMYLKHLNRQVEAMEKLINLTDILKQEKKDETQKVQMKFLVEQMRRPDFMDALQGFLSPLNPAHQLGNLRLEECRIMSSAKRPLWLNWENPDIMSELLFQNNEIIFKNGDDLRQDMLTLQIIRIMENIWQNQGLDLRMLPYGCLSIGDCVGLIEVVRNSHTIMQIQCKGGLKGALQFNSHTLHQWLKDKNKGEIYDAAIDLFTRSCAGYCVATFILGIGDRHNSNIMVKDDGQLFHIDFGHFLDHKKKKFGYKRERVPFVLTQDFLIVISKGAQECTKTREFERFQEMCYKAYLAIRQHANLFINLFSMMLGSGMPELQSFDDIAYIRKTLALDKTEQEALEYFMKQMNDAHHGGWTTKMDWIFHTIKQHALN
Data set [3] is described as follows: cells. The following applies: Homo sapiens, NZB5.
A short description of data set [4]: cells. The following applies: Homo sapiens, HCT-116.
The nature of data set [5]: cells. The following applies: Homo sapiens, HCT-116. The source holds these as a separate data set.
A short description of data set [6]: Inhibition of bovine recombinant PI3K p110delta expressed in Sf21 insect cells using phosphatidylinositol as substrate after 1 hr by phosphoimaging. Further details: species or system Bos taurus.
In data set [7] the target is T1, Phosphatidylinositol 4,5-bisphosphate 3-kinase catalytic subunit beta isoform. Kind of data set: Inhibition of human recombinant PI3K p110beta expressed in Sf21 insect cells using phosphatidylinositol as substrate after 1 hr by phosphoimaging.
Data set [8] is described as follows: AUC (infinity) in CD1 mouse at 10 mg/kg, ip administered as single dose by LC-MS/MS analysis. Type of data set: ADME, organism-based. Further details: time infinity, dose 10 mg/kg, route intraperitoneal. The following applies: plasma.
For data set [9], the target named is Phosphatidylinositol 4,5-bisphosphate 3-kinase catalytic subunit alpha isoform (Homo sapiens, UniProt P42336, E545K). The experiment in a line: Inhibition of human PI3K p110alpha helical domain E545K mutant after 2 hrs by HTRF assay. On the technique in general: Time-resolved FRET reads energy transfer from a long-lived donor to a nearby acceptor.
Phosphatidylinositol 4,5-bisphosphate 3-kinase catalytic subunit alpha isoform (Homo sapiens, UniProt P42336, E545K), sequence (P42336 whole entry E545K, the tested form may be a part, canonical isoform): as the sequence (P42336 whole entry, canonical isoform) above, with E545K counted along it
Data set [10] has as its target Phosphatidylinositol 4,5-bisphosphate 3-kinase catalytic subunit alpha isoform (Mus musculus, UniProt P42337). The experiment in a line: Inhibition of mouse recombinant PI3K p110alpha expressed in Sf21 insect cells using phosphatidylinositol as substrate after 1 hr by phosphoimaging.
For data set [11], the target named is T2, Phosphatidylinositol 4,5-bisphosphate 3-kinase catalytic subunit alpha isoform. Kind of data set: Inhibition of PIK3CA-mediated cell signaling in PTEN-deficient human U87MG cells assessed as inhibition of insulin-induced pAkt/PKB phosphorylation at Ser473 treated for 15 mins before insulin challenge measured after 5 mins by immunoblotting. It is filed as cell-based, U-87MG ATCC.

The nature of data set [12]: Tmax in CD1 mouse at 10 mg/kg, ip administered as single dose by LC-MS/MS analysis. The following applies: in vivo. It is filed as ADME, organism-based. Further details: dose 10 mg/kg, route intraperitoneal.
Data set [13] in a line: cells. The following applies: Homo sapiens, NZOV9.
Data set [14] has as its target Phosphatidylinositol 4,5-bisphosphate 3-kinase catalytic subunit alpha isoform (Homo sapiens, UniProt P42336, H1047R). Kind of data set: Inhibition of human His-tagged PI3K p110alpha H1047R mutant after 2 hrs by HTRF assay.
Data set [15] can be described thus: Aqueous solubility of the compound in water after 15 mins by HPLC analysis. The following applies: aqueous medium.
For data set [16], the target named is T3, Phosphatidylinositol 4,5-bisphosphate 3-kinase catalytic subunit delta isoform (Homo sapiens, UniProt O00329).
T3 sequence (O00329 whole entry): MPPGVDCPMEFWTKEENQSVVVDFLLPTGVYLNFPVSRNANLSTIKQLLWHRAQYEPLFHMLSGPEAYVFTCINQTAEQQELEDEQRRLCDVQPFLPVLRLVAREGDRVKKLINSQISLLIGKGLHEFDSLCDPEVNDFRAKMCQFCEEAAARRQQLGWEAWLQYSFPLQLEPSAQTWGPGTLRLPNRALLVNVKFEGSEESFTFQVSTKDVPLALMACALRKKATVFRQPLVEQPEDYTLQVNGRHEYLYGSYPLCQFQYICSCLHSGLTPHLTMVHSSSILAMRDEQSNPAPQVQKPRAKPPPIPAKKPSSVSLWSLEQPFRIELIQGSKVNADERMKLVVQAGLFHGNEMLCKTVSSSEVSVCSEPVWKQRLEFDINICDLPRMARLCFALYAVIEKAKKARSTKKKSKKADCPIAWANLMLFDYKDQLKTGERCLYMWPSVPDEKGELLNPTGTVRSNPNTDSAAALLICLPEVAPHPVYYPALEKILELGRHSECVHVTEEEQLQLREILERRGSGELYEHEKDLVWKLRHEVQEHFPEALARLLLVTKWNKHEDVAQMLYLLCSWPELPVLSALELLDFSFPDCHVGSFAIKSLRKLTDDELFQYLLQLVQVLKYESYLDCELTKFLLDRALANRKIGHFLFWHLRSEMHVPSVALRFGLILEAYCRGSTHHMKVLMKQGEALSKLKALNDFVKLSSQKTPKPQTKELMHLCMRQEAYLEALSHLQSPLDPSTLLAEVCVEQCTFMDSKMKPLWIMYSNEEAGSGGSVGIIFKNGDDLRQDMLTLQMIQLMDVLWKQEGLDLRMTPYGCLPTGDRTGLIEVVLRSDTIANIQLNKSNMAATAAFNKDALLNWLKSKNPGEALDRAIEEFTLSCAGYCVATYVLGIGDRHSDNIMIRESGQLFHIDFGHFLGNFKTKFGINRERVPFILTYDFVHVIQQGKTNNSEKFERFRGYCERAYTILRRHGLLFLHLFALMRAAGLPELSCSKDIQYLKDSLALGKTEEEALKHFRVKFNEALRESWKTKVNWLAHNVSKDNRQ
The experiment in a line: Inhibition of human His-tagged PI3K p110delta after 2 hrs by HTRF assay.

The target of data set [17] is T2, Phosphatidylinositol 4,5-bisphosphate 3-kinase catalytic subunit alpha isoform. The experiment in a line: Inhibition of PIK3CA-mediated cell signaling in PTEN-deficient human U87MG cells assessed as inhibition of insulin-induced pAkt/PKB phosphorylation at Thr308 treated for 15 mins before insulin challenge measured after 5 mins by immunoblotting. It is filed as cell-based, U-87MG ATCC. On the technique in general: A western blot detects proteins with antibodies after separation by electrophoresis.

Data set [18] deals with Phosphatidylinositol 4,5-bisphosphate 3-kinase catalytic subunit gamma isoform (Homo sapiens, UniProt P48736). The experiment in a line: Inhibition of human His-tagged PI3K p110gamma after 2 hrs by HTRF assay.
Phosphatidylinositol 4,5-bisphosphate 3-kinase catalytic subunit gamma isoform, sequence (P48736 whole entry, canonical isoform): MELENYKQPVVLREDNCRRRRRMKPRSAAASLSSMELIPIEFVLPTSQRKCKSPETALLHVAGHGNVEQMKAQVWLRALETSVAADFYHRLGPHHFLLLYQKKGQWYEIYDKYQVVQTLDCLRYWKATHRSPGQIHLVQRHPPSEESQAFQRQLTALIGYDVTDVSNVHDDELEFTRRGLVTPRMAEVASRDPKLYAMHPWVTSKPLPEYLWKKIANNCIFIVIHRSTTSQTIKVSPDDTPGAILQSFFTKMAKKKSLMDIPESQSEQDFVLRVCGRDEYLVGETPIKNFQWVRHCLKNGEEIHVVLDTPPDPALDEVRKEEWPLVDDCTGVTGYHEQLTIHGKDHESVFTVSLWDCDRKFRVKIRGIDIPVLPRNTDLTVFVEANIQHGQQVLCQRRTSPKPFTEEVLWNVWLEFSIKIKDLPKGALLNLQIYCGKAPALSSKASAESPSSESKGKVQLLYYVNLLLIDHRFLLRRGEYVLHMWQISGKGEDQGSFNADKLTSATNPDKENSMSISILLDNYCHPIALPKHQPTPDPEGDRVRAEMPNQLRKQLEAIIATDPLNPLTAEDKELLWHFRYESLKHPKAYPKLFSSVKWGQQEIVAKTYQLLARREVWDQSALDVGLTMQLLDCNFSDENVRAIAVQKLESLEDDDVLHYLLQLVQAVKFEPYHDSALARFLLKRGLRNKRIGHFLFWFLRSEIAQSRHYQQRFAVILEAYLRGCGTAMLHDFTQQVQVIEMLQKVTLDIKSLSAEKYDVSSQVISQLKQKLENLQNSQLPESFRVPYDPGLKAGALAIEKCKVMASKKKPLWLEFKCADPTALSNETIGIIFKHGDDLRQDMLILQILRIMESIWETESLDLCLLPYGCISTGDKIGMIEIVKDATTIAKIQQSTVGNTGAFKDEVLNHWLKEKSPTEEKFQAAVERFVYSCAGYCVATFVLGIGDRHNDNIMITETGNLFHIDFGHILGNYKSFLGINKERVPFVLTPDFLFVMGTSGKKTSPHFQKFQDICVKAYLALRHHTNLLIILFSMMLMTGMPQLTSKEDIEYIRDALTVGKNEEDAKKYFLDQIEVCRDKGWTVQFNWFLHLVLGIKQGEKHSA
The nature of data set [19]: Half life in CD1 mouse at 10 mg/kg, ip administered as single dose by LC-MS/MS analysis. The following applies: in vivo. It is filed as ADME, organism-based. On the set-up: dose 10 mg/kg, route intraperitoneal.
Data set [20] in a line: Cmax in CD1 mouse at 10 mg/kg, ip administered as single dose by LC-MS/MS analysis. It is filed as ADME, organism-based. Further details: dose 10 mg/kg, route intraperitoneal. The following applies: in vivo.
Data set [21] concerns Mus musculus. The experiment in a line: Toxicity in PTEN-deficient human U87MG cells xenografted Rag1-/- mouse assessed as body weight loss at 15 mg/kg, ip qd for 10 days. Type of data set: organism-based, U-87MG ATCC. The following applies: in vivo, 240 h. On the set-up: dose 15 mg/kg, route intraperitoneal. Background: A xenograft is tissue or cells of one species grown in another, often human tumour cells in immunodeficient mice.

Data set [22] in a line: Antitumor activity in PTEN-deficient human U87MG xenografted in Rag1-/- mouse assessed as inhibition of tumor growth at 15 mg/kg, ip qd for 10 days measured after 10 days (reference value: 18.5 +/- 3.4%). It is filed as functional, U-87MG ATCC. The following applies: U-87 MG, 240 h, route intraperitoneal, read-out: GI.
The subject of data set [23] is Mus musculus. Kind of data set: Toxicity in PTEN-deficient human U87MG cells xenografted Rag1-/- mouse assessed as delayed body weight loss at 50 mg/kg, ip qd for 10 days. Type of data set: organism-based, U-87MG ATCC. Further details: dose 50 mg/kg, route intraperitoneal. The following applies: in vivo, 240 h.
Data set [24] is described as follows: Antitumor activity in PTEN-deficient human U87MG xenografted in Rag1-/- mouse assessed as inhibition of tumor growth at 40 mg/kg, ip qd for 10 days measured after 10 days (reference value: 18.5 +/- 3.4%). The following applies: U-87 MG, 240 h, read-out: GI, route intraperitoneal. It is filed as functional, U-87MG ATCC.
Data set [25] relates to Mus musculus. Kind of data set: Toxicity in PTEN-deficient human U87MG cells xenografted Rag1-/- mouse assessed as body weight loss at 40 mg/kg, ip qd for 10 days. Type of data set: organism-based, U-87MG ATCC. On the set-up: dose 40 mg/kg, route intraperitoneal. The following applies: in vivo, 240 h.

As a reminder, the IC50 is the concentration that inhibits the measured activity by half. One may read the AUC(0-inf) as total exposure, with the tail of the curve extrapolated. Read a low AUC(0-inf) as less exposure. Broadly, the Tmax is the time from dosing to the highest level. The term solubility denotes the concentration that dissolves in the medium under given conditions. The half-life is the time in which the quantity being followed falls by half. The low end stands for rapid decline, the high end for slow decline. Usually Cmax stands for the peak of the concentration-time curve.

Phosphatidylinositol 4,5-bisphosphate 3-kinase catalytic subunit alpha isoform (Homo sapiens, UniProt P42336, H1047R), sequence (P42336 whole entry H1047R, canonical isoform): as the sequence (P42336 whole entry, canonical isoform) above, with H1047R counted along it
Phosphatidylinositol 4,5-bisphosphate 3-kinase catalytic subunit alpha isoform (Mus musculus, UniProt P42337), sequence (P42337 whole entry, canonical isoform): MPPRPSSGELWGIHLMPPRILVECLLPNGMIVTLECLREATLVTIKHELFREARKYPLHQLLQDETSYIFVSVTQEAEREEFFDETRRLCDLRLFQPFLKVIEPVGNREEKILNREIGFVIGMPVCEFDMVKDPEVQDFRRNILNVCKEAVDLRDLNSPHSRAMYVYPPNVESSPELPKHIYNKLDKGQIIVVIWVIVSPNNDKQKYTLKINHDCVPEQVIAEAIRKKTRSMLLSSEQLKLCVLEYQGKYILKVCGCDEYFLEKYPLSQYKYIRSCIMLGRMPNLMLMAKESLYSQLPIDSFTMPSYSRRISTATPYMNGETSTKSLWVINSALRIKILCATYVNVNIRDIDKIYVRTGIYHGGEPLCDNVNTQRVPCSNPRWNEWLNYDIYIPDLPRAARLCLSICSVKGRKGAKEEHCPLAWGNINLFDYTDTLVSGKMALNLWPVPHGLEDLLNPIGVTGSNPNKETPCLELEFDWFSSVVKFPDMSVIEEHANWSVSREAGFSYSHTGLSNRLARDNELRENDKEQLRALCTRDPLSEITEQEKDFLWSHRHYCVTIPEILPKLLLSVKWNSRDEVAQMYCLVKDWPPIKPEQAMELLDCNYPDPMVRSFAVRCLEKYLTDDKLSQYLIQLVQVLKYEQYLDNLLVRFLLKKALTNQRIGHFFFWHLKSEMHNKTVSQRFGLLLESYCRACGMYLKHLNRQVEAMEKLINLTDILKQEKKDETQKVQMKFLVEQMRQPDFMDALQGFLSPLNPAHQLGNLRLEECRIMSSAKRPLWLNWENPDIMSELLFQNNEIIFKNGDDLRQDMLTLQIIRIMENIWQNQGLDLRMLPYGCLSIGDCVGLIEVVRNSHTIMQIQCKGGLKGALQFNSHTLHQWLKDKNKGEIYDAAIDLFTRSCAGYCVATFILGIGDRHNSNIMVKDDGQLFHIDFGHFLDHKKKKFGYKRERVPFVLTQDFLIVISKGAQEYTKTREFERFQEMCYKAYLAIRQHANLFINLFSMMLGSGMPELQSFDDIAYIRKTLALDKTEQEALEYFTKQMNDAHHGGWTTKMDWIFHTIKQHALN

Take `Oc1cccc2c1nc(C(F)F)n2-c1nc(N2CCOCC2)nc(N2CCOCC2)n1`: the IC50 in [1] came out at 3.5 nM; in [2] it was 0.53 nM; in the data set “cells [3]”, 30 nM; in the data set “cells [4]” it was 8.3 nM; in the data set “cells [5]”, 0.18 nM; in data set [6], 0.27 nM. In addition, the IC50 turned out to be 0.68 nM in data set [7]; 0.12 nM in [9]; 0.9 nM in [10]; 1.3 nM in data set [11]; 10 nM in the data set “cells [13]”; 0.83 nM in data set [14]. The IC50 stood at 0.65 nM in [16], 2.9 nM in data set [17] and 6 nM in data set [18]. This compound also had an AUC(0-inf) in [8] of 1.03 µM·h. In data set [12], the Tmax was 0.25 h. The compound further had a solubility at […] in data set [15] of 0.32 µg/mL (≈ 0.738 µM). Moreover, the half-life in [19] is 1.55 h. This compound gave a Cmax in [20] of 628 nM.
As to `Cn1c(=O)n(-c2ccc(C(C)(C)C#N)cc2)c2c3cc(-c4cnc5ccccc5c4)ccc3ncc21` [DACTOLISIB], the Activity result in the data set on Mus musculus [21] is “Non-toxic”. In addition, the inhibition in vivo at 15 mg/kg in data set [22] came to 31.5%.
In the case of `FC(F)Oc1cccc2c1nc(C(F)F)n2-c1nc(N2CCOCC2)nc(N2CCOCC2)n1`, the IC50 in [1] was above 2500 nM; in [2], 4.7 nM; in the data set “cells [3]” it was 47 nM; in “cells [4]” it was 415 nM; in the data set “cells [5]”, 381 nM; in data set [6], 7.4 nM. Further, the IC50 in data set [7] is 56 nM; in data set [9] it was 3 nM; in data set [10], 26 nM; in data set [11] it was 427 nM; in “cells [13]”, 28 nM; in [14], 8.5 nM. The IC50 in data set [16] amounted to 34 nM; in data set [17], 418 nM; in [18], 56 nM.
As for `COc1cccc2c1nc(C(F)F)n2-c1nc(N2CCOCC2)nc(N2CCOCC2)n1`, the IC50 amounted to 50 nM in the data set “cells [3]”; 37 nM in “cells [4]”; 25 nM in “cells [5]”; 3.9 nM in [6]; 25 nM in [7]; 2.7 nM in data set [10]. For the same compound, the IC50 came to 55 nM in [11], 10 nM in “cells [13]” and 28 nM in data set [17]. The concentration in solution in [15] (solubility at […]) was 0.08 µg/mL (≈ 0.179 µM).
Take `COc1ccc2c(nc(C(F)F)n2-c2nc(N3CCOCC3)nc(N3CCOCC3)n2)c1O`: the IC50 stood at 44 nM in data set [1]; 70 nM in [2]; 334 nM in the data set “cells [3]”; 507 nM in the data set “cells [4]”; 515 nM in the data set “cells [5]”; 0.3 nM in data set [6]. The IC50 in data set [7] was determined as 6.7 nM; in data set [9] it was 49 nM; in data set [10] it was 37 nM; in data set [11], 583 nM; in the data set “cells [13]” it was 130 nM; in data set [14] it was 158 nM. Further, the values for the IC50 in data set [16], in data set [17] and in data set [18] were 2 nM, 378 nM and 52 nM, respectively.
For `COc1cc(N)cc2c1nc(C(F)F)n2-c1nc(N2CCOCC2)nc(N2CCOCC2)n1`, in the data set “cells [4]”, the IC50 came to 12 nM. Besides, the AUC(0-inf) in data set [8] is 5.22 µM·h. Also, the Tmax in [12] was 0.083 h. In addition, the Activity entry in the data set with Mus musculus [23] is reported as “Toxic”. In [19], this compound had a half-life of 1.48 h. In data set [20], the concentration peaked (Cmax) at 3450 nM.
For the compound `FC(F)c1nc2ccccc2n1-c1nc(N2CCOCC2)nc(N2CCOCC2)n1` [ZSTK-474], the values for the IC50 in “cells [4]” and in the data set “cells [5]” were 97 nM and 78 nM, respectively. For the same compound, the inhibition in vivo at 40 mg/kg in [24] was determined as 65.3%. In data set [8], this compound registered an AUC(0-inf) of 9.66 µM·h. In addition, the Tmax in [12] is 2 h. The solubility at […] in data set [15] was 0.61 µg/mL (≈ 1.46 µM). Further, in data set [19], the half-life was 1.52 h. In data set [20], the Cmax came to 2360 nM. Further, the Activity result in the data set on Mus musculus [25] was “Non-toxic”.
